Structures can show the parent of a compound that is named as a salt.
Legend:
[1] = Example 8: photographic speed and fog, 365 nm exposure, cubic emulsion C-2; design: Fog: unit not given here
Description: (§1) For photographic evaluation, each of the coating strips was exposed for 0.1 sec to a 365 nm emission line of a Hg lamp filtered through a Kodak Wratten filter number 18A and a step wedge ranging in density from 0 to 4 density units in 0.2 density steps. The exposed film strips were developed for 6 min in Kodak Rapid X-ray Developer (KRX). S365, relative sensitivity at 365 nm, was evaluated at a density of 0.2 units above fog.
Two cubic emulsions with uniform halide composition were precipitated using deionized gelatin. Emulsion C-1 was a AgErI emulsion with a 3% I content and a cubic edge length of 0.47 μm and emulsion C-2 was an AgBr emulsion with a cubic edge length of 0.52 μm. The emulsions were sulfur sensitized by adding 1,3-dicarboxymethyl-1,3-dimethyl-2-thiourea at 40° C.; the temperature was then raised to 60° C. at a rate of 5° C./3 min and the emulsions held for 20 min before cooling to 40° C. The amounts of the sulfur sensitizing compound used were 1.0×10^-5 mole/mole Ag for emulsion C-1, and 6.0×10^-6mole/mole Ag for emulsion C-2. These experimental coating variations contained the hydroxybenzene, 2,4-disulfocatechcol (HB3) at a concentration of 13 mmole/mole Ag, added to the melt before the addition of any further compounds. Some of the variations were then dyed with the sensitizing dye D-II, added from methanol solution. The fragmentable electron donor compounds were then added to the emulsion melts at 40° C. and coatings were prepared and tested as described in Example 1 except that the additional gelatin used to prepare the coatings described in Table VIII was deionized gelatin. Also, the dyed coatings were tested for their response to a spectral exposure as described in Example 3.

[2] = Example 7: photographic speed and fog with/without HB3, 365 nm exposure, emulsion T-2
Description: as §1
An AgBrI tabular silver halide emulsion (Emulsion T-2) was prepared containing 4.05% total I distributed such that the central portion of the emulsion grains contained 1.5% I and the perimeter area contained substantially higher I, as described by Chang et. al., U.S. Pat. No. 5,314,793. […] This emulsion was precipitated using deionized gelatin. The emulsion was sulfur sensitized by adding 8.5×10^-6 mole 1,3-dicarboxymethyl-1,3-dimethyl-2-thiourea /mole Ag at 40° C.; the temperature was then raised to 60° C. at a rate of 5° C./3 min and the emulsions held for 20 min before cooling to 40° C. The chemically sensitized emulsion was then used to prepare coatings containing the fragmentable two-electron donor compounds. […] Where present, the blue sensitizing dye D-I or the red sensitizing dye D-II were added from methanol solution to the emulsion at 40° C. after the chemical sensitization and disulfocatechol addition. The fragmentable two-electron donor compounds were added to the emulsion at 40° C. and the coatings were prepared and tested as described in Example 1, except that the additional gelatin used to prepare the coatings described in Table III was deionized gelatin.
Where present the blue sensitizing dye D-I or the red sensitizing dye D-II were added from methanol solution to the emulsion at 40° C. after the chemical sensitization and disulfocatechol addition. The fragmentable two-electron donating compounds were then added to the emulsion and coatings prepared as described in Example 1, except that the additional gelatin used to prepare the coatings described in Table VII was deionized gelatin. The coatings were tested for their response to a 365 nm exposure as described in Example 1.

[3] = Example 12: photographic sensitivity and fog, color format, blue sensitized emulsion T-2; details: for Photographic Sensitivity SWR2B: control=100
Description: The AgBrI tabular silver halide emulsion T-2 from Example 3 was optimally chemically and spectrally sensitized by adding NaSCN, 1.07 mmole of the blue sensitizing dye D-I per mole of silver, Na3 Au(S2 O3)2 ·2H2 O, Na2 S2 O3 ·5H2 O, and a benzothiazolium finish modifier and then subjecting the emulsion to a heat cycle to 65° C. The hydroxybenzene, 2,4-disulfocatechcol (HB3) at a concentration of 13×10^-3 mole/mole Ag was added to the emulsion melt before the start of the chemical sensitization procedure. This chemically sensitized emulsion was then used to prepare the experimental coating variations given in Table X. For all the variations in Table X, the antifoggant and stabilizer tetraazaindene (TAI) was added to the emulsion melt in an amount of 1.75 g/mole Ag before any further addenda. The fragmentable two-electron donors S-3, S-9, S-6, or S-8 were then added to the emulsion melt.
The melts were prepared for coating by adding additional water, deionized gelatin and coating surfactants. Coatings were prepared by combining the emulsion melts with a melt containing deionized gelatin and an aqueous dispersion of the cyan-forming color coupler CC-1 and coating the resulting mixture on acetate support. The final coatings contained Ag at 0.81 g/m^2, coupler at 1.61 g/m^2, and gelatin at 3.23 g/m^2. The coatings were overcoated with a protective layer containing gelatin at 1.08 g/m^2, coating surfactants, and a bisvinylsulfonylmethyl ether as a gelatin hardening agent. The structure of the color coupler CC-1 is given below: [drawing 120]
For photographic evaluation, each of the coating strips was exposed for 0.01 sec to a 3000K color temperature tungsten lamp filtered to give an effective color temperature of 5500K and further filtered through a Kodak Wratten filter number 2B, and a step wedge ranging in density from 0 to 4 density units in 0.20 density steps. This exposure gives light absorbed mainly by the blue sensitizing dye. The exposed film strips were developed for 31/4 minutes in Kodak C-41 color developer. SWR2B, relative sensitivity for this filtered exposure, was evaluated at a cyan density of 0.15 units above fog.
The AgBrI tabular emulsion T-2 as described in Example 3 was sensitized as described in Example 10 except that the hydroxybenzene HB3 was added at the completion of the chemical sensitization procedure. For all the variations in Table XII, the antifoggant and stabilizer tetraazaindene (TAI) was added to the emulsion melt in an amount of 1.75 g/mole Ag before any further addenda. The fragmentable electron donors PMT-1 or PMT-2 were then added to the emulsion melt. These compounds contain a phenylmercaptotetrazole as the silver halide adsorbing group. The melts were then coated and tested as described in Example 10.

[4] = 0.16 x10^-3 mol/mol Ag, no dye, control=100
[5] = 0.007 x10^-3 mole/mole Ag, HB3 0, dye II 0.86 x10^-3
[6] = 0.007 x10^-3 mole/mole Ag, HB3 13 x10^-3, dye II 0.86 x10^-3
[7] = 0.007 x10^-3 mole/mole Ag, HB3 13 x10^-3, dye II 0.86 x10^-3, dyed control 68
[8] = 0.07 x10^-3 mole/mole Ag, HB3 0, dye I 0.91 x10^-3
[9] = 0.07 x10^-3 mole/mole Ag, HB3 0, no dye
[10] = 0.07 x10^-3 mole/mole Ag, HB3 0, no dye, control=100
[11] = 0.07 x10^-3 mole/mole Ag, HB3 13 x10^-3, dye I 0.91 x10^-3
[12] = 0.07 x10^-3 mole/mole Ag, HB3 13 x10^-3, dye I 0.91 x10^-3, dyed control 105
[13] = 0.07 x10^-3 mole/mole Ag, HB3 13 x10^-3, no dye
[14] = 0.07 x10^-3 mole/mole Ag, HB3 13 x10^-3, no dye, control=100

Compound	Fog ([1]; 0.16 x10^-3 mol/mol Ag, no dye)	S365 [1, 4]	Fog [2, 5]	Fog [2, 6]	S365 [2, 7]	Fog [2, 8]	S365 [2, 8]	Fog [2, 9]	S365 [2, 10]	Fog [2, 11]	S365 [2, 12]	Fog [2, 13]	S365 [2, 14]	Fog ([3]; 0.5 x10^-6 mol/mol Ag)	Photographic Sensitivity SWR2B ([3]; 0.5 x10^-6 mol/mol Ag)	other results
CCSCCN(c1ccccc1)C(C)C(=O)O (stereo not drawn) [Compound S-9, N-(Phenyl)-N-(2-thioethyl-ethyl)alanine sodium salt]	0.06	209	0.77	0.44	107	0.19	159	0.21	170	0.13	162	0.13	166			Fog ([1]; 0.005 x10^-3 mol/mol Ag, dye II 0.40 x10^-3): 0.16; S365 ([1]; 0.005 x10^-3 mol/mol Ag, dye II 0.40 x10^-3, dyed control 76): 141; Fog ([1]; 0.016 x10^-3 mol/mol Ag, dye II 0.40 x10^-3): 0.19; S365 ([1]; 0.016 x10^-3 mol/mol Ag, dye II 0.40 x10^-3, dyed control 76): 166; Fog ([1]; 0.05 x10^-3 mol/mol Ag, no dye): 0.06; S365 ([1]; 0.05 x10^-3 mol/mol Ag, no dye, control=100): 204; Fog ([2]; 0.0022 x10^-3 mole/mole Ag, HB3 13 x10^-3, dye II 0.86 x10^-3): 0.24; S365 ([2]; 0.0022 x10^-3 mole/mole Ag, HB3 13 x10^-3, dye II 0.86 x10^-3, dyed control 68): 115
CCSCCN(c1ccc(C(=O)O)cc1)C(C)C(=O)O (stereo not drawn) [Compound S-11]	0.06	200														Fog ([1]; 0.05 x10^-3 mol/mol Ag, dye II 0.40 x10^-3): 0.10; S365 ([1]; 0.05 x10^-3 mol/mol Ag, dye II 0.40 x10^-3, dyed control 76): 145; Fog ([1]; 0.16 x10^-3 mol/mol Ag, dye II 0.40 x10^-3): 0.14; S365 ([1]; 0.16 x10^-3 mol/mol Ag, dye II 0.40 x10^-3, dyed control 76): 166; Fog ([1]; 0.50 x10^-3 mol/mol Ag, no dye): 0.06; S365 ([1]; 0.50 x10^-3 mol/mol Ag, no dye, control=100): 209
CCSCCN(c1ccc(C)cc1)C(CC(=O)O)C(=O)O (stereo not drawn) [Compound S-8]			0.21	0.15	112	0.12	155	0.16	159	0.12	120	0.13	162			S365 [2, 5]: 110
Cc1ccc(N(CCC(=O)Nc2cccc(-n3nnnc3S)c2)C(C)C(=O)O)cc1 (stereo not drawn) [PMT-1]														0.09	138	Fog ([3]; 1.5 x10^-6 mol/mol Ag): 0.15; Photographic Sensitivity SWR2B ([3]; 1.5 x10^-6 mol/mol Ag): 166
CC(C(=O)O)N(CCC(=O)Nc1cccc(-n2nnnc2S)c1)c1ccccc1 (stereo not drawn) [PMT-2]														0.09	141	Fog ([3]; 1.4 x10^-6 mol/mol Ag): 0.10; Photographic Sensitivity SWR2B ([3]; 1.4 x10^-6 mol/mol Ag): 166; Fog ([3]; 4.5 x10^-6 mol/mol Ag): 0.16; Photographic Sensitivity SWR2B ([3]; 4.5 x10^-6 mol/mol Ag): 191

Reference: patent US5747235A, “Silver halide light sensitive emulsion layer having enhanced photographic sensitivity” (Eastman Kodak Company, priority 1996, dated 1998)
